Reference: ChEMBL document CHEMBL1151591, “Structure-activity relationship of novel tallimustine derivatives: synthesis and antitumor activity” (Bioorg Med Chem Lett, 1996)

Columns and labels:
[1] = system: L1210; experiment: In vitro inhibition of L1210 murine leukemia (Drug sensitivity was determined by counting surviving cells after 48 hr of continuous exposure to at least 4 conc. of drug); format: functional, cell-based; conditions: Mus musculus, L1210, 48 h
[2] = system: Mus musculus; experiment: In vivo inhibition of L1210 murine leukemia, expressed as optimal dose (CDF21 mice were given an injection of 105 cells i.p. and treated on day 1); format: functional
[3] = system: Mus musculus; experiment: In vivo cytotoxicity against L1210 murine leukemia, expressed as median survival time of treated vs. untreated mice X 100 (CDF21 mice were given an injection of 105 cells i.p. and treated on day 1); format: functional

| Structure (SMILES) | IC50 [1] [mg/L] | Optimal dose [2] [mg/kg] | T/C [3] [%] |
| --- | --- | --- | --- |
| C=C(Br)C(=O)Nc1nc(C(=O)Nc2cc(C(=O)Nc3cc(C(=O)NCCC(=N)N)n(C)c3)n(C)c2)cs1.Cl | 23.8 |  |  |
| Cl.Cn1cc(NC(=O)c2cc(NC(=O)c3cc(NC(=O)c4ccc(N(CCCl)CCCl)cc4)nn3C)cn2C)cc1C(=O)NCCC(=N)N | 1.39 | 12.5 | 118 |
| Cl.Cn1cc(NC(=O)c2ccc(N(CCCl)CCCl)cc2)cc1C(=O)Nc1cc(C(=O)Nc2cc(C(=O)NCCC(=N)N)n(C)n2)n(C)c1 | 0.03 | 6.25 | 213 |
| Cl.Cn1cc(NC(=O)c2csc(NC(=O)c3ccc(N(CCCl)CCCl)cc3)n2)cc1C(=O)Nc1cc(C(=O)NCCC(=N)N)n(C)n1 | 7.2 |  |  |
| Cl.Cn1cc(NC(=O)c2ccc(N(CCCl)CCCl)cc2)cc1C(=O)Nc1cc(C(=O)Nc2cc(C(=O)NCCC(=N)N)n(C)n2)n(C)n1 | 0.11 | 25 | 259 |
| C=C(Br)C(=O)Nc1cc(C(=O)Nc2cc(C(=O)Nc3cc(C(=O)NCCC(=N)N)n(C)c3)n(C)c2)n(C)n1.Cl | 0.15 | 30 | 181 |
| Cl.Cn1cc(NC(=O)c2cc(NC(=O)c3csc(NC(=O)c4ccc(N(CCCl)CCCl)cc4)n3)cn2C)cc1C(=O)NCCC(=N)N | 32.5 |  |  |
| Cl.Cn1cc(NC(=O)c2cc(NC(=O)c3cc(NC(=O)c4ccc(N(CCCl)CCCl)cc4)cn3C)cn2C)cc1C(=O)NCCC(=N)N [TALLIMUSTINE CHLORIDE] |  | 3.13 | 175 |
